# Experiments:
# [1] = test system: TGF-β/Smad signaling in CD4+ T cells; assay: qPCR analysis of TGF-β/Smad signaling downstream genes; assay type: cell-based, mouse; details: 20 μM 17aa, 24 h
# Description: Figure 4 Dleu2-17aa modulates TGF-β/Smad signaling to promote Foxp3 transcription. (A) qPCR analysis of TGF-β/Smad signaling downstream genes in CD4^+ T cells treated with Dleu2-17aa or scrPEP for 24 h and challenged with TGF-β to activate the signaling pathway (n = 3). (B) NIH/3T3 cells were transfected with a Foxp3 CNS1-luciferase reporter plasmid and a Smad3 expression vector. Subsequently, the cells were treated with either Dleu2-17aa or scrPEP. Luciferase activity fold induction was quantified (n = 3). (C) Foxp3 CNS1 region enrichment by Smad3 treated with or without Dleu2-17aa for 24 h in CD4^+ T cells was assessed by ChIP-qPCR (n = 3). (D) EMSA was performed in NIH/3T3 cell nuclear lysates using a 10 μM biotin-labeled Foxp3 probe and treated with Dleu2-17aa or scrPEP (3, 10, 30 μM). There were band shifts to a higher molecular weight and an increase in band intensity by Dleu2-17aa treatment. Data information: n indicates biological replicate. Error bars are mean ± SEM; **P < 0.01, and ***P < 0.001. Statistical analysis was by two-tailed Student’s t-test for (A–C). Source data are available online for this figure.
# Total RNA from cells or tissues was extracted using TRIzol reagent (Invitrogen) and then quantified. 1 μg of total RNA was reverse transcribed into cDNA with HiScript II Q RT SuperMix for qPCR (+gDNA Wiper) (Vazyme, China, R223-01). The cDNA samples were run in triplicate at 200 ng/well. Quantitative real-time PCR (qPCR) was performed using ChamQ Universal SYBR qPCR Master Mix (Vazyme, China) on an Applied Biosystems 7500 Fast Real-Time PCR System or a ViiA 7 Real-Time PCR System (Applied Biosystems). All gene expression results were normalized to the expression of the housekeeping gene GAPDH. Primer sequences are listed as follows: Dleu2 forward, 5′-[…]-3 and reverse, 5′-[…]-3; Foxp3 forward, 5′-CCCATCCCCAGGAGTCTTG-3′ and reverse, 5′-[…]-3′; Ctla2a forward, 5′-[…]-3′ and reverse, 5′-[…]-3′; Ccr8 forward, 5′-[…]-3′ and reverse, 5′-[…]-3′; Tgf-β forward: 5′-[…]-3′ and reverse, 5′-[…]-3′; Ctla4 forward, 5′-[…]-3′ and reverse, 5′-[…]-3′; Gapdh forward, 5′-[…]-3′ and reverse, 5′-GGGGTCGTTGATGGCAAC-3′.
# [2] = test system: CD4+ T cells in CNS of EAE mice; assay: Flow cytometry of CNS T cells of treated EAE mice; assay type: in vivo, mouse; details: 100 μg i.v., replicate 4
sequence,measurement,setting,value
"ARGPARRMRGGRRRRLR [scrPEP, scrambled control peptide of Dleu2-17aa]","Relative mRNA expression, Ccr8","[1]; TGF-β, replicate 1",1.77
same,"Relative mRNA expression, Clta4","[1]; TGF-β, replicate 1",4.488
same,"Relative mRNA expression, Ctla2a","[1]; TGF-β, replicate 1",7.981
same,"Relative mRNA expression, Foxp3","[1]; TGF-β, replicate 1",19.2862
same,"Relative mRNA expression, Tgf-β","[1]; TGF-β, replicate 1",0.9918
same,"Relative mRNA expression, Ccr8","[1]; TGF-β, replicate 2",1.871
same,"Relative mRNA expression, Clta4","[1]; TGF-β, replicate 2",3.767
same,"Relative mRNA expression, Ctla2a","[1]; TGF-β, replicate 2",6.697
same,"Relative mRNA expression, Foxp3","[1]; TGF-β, replicate 2",27.373
same,"Relative mRNA expression, Tgf-β","[1]; TGF-β, replicate 2",0.9024
same,"Relative mRNA expression, Ccr8","[1]; TGF-β, replicate 3",1.768
same,"Relative mRNA expression, Clta4","[1]; TGF-β, replicate 3",4.326
same,"Relative mRNA expression, Ctla2a","[1]; TGF-β, replicate 3",4.254
same,"Relative mRNA expression, Foxp3","[1]; TGF-β, replicate 3",26.607
same,"Relative mRNA expression, Tgf-β","[1]; TGF-β, replicate 3",1.365
same,"Relative mRNA expression, Ccr8","[1]; no TGF-β, replicate 1",1
same,"Relative mRNA expression, Clta4","[1]; no TGF-β, replicate 1",1
same,"Relative mRNA expression, Ctla2a","[1]; no TGF-β, replicate 1",1
same,"Relative mRNA expression, Foxp3","[1]; no TGF-β, replicate 1",1
same,"Relative mRNA expression, Tgf-β","[1]; no TGF-β, replicate 1",1
same,"Relative mRNA expression, Ccr8","[1]; no TGF-β, replicate 2",0.871
same,"Relative mRNA expression, Clta4","[1]; no TGF-β, replicate 2",0.794
same,"Relative mRNA expression, Ctla2a","[1]; no TGF-β, replicate 2",0.868
same,"Relative mRNA expression, Foxp3","[1]; no TGF-β, replicate 2",1
same,"Relative mRNA expression, Tgf-β","[1]; no TGF-β, replicate 2",0.7198
same,"Relative mRNA expression, Ccr8","[1]; no TGF-β, replicate 3",1
same,"Relative mRNA expression, Clta4","[1]; no TGF-β, replicate 3",0.856
same,"Relative mRNA expression, Ctla2a","[1]; no TGF-β, replicate 3",1
same,"Relative mRNA expression, Foxp3","[1]; no TGF-β, replicate 3",0.967
same,"Relative mRNA expression, Tgf-β","[1]; no TGF-β, replicate 3",0.8563
same,CD4+ / Live Cells(%),[2],10.2%
same,Foxp3+/ CD4+ Cells (%),[2],10.5%
same,IFN-γ+/ CD4+ Cells(%),[2],22.6%
